{"source": "paper PMC7990177", "about": "“Naegleria fowleri: Protein structures to facilitate drug discovery for the deadly, pathogenic free-living amoeba” (PLoS ONE, 2021)", "key": {"[1]": {"target": "T1, N. fowleri peptidylprolyl isomerase (NfPPI) (Naegleria fowleri, UniProt A0A2H4A315)", "T1 construct": "gene NF0084240; N-terminal His tag (vector pBG1861), E. coli BL21(DE3)R3 Rosetta; 119 residues; FKBP family; chains A-D in crystal", "T1 sequence (A0A2H4A315 1-119)": "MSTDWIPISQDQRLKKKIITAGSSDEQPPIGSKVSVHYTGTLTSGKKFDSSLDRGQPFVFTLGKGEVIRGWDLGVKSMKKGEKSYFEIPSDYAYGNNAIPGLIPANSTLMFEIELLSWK", "assay": "X-ray crystal structure", "assay_type": "binding", "conditions": "active site; Fig 4C legend calls the 6MKE ligand FK506-AN"}, "[2]": {"target": "T2, N. fowleri S-adenosyl-L-homocysteine hydrolase (NfSAHH) (Naegleria fowleri, UniProt A0A1Z0YU84)", "T2 construct": "gene NF0035640; N-terminal His tag (vector pBG1861), E. coli BL21(DE3)R3 Rosetta; 472 residues; homo-tetramer in asymmetric unit", "T2 sequence (A0A1Z0YU84 1-472)": "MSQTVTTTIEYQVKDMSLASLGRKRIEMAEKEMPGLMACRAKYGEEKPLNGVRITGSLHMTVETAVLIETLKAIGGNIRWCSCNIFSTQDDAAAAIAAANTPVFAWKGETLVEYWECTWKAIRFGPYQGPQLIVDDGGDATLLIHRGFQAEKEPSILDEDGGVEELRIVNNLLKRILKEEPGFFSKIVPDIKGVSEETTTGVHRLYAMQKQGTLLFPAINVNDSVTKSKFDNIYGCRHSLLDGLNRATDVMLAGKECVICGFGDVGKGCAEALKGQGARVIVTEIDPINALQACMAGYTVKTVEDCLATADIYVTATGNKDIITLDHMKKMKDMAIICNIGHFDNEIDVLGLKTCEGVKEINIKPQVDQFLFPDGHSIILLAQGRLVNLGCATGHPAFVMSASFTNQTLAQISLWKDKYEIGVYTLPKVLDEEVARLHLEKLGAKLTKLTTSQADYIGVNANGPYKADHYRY", "assay": "X-ray crystal structure", "assay_type": "binding"}}, "data": [{"smiles": "C=CC[C@@H]1/C=C(\\C)C[C@H](C)C[C@H](OC)[C@H]2O[C@@](O)(C(=O)C(=O)N3CCCC[C@H]3C(=O)O[C@H](/C(C)=C/[C@@H]3CC[C@@H](O)[C@H](OC)C3)[C@H](C)[C@@H](O)CC1=O)[C@H](C)C[C@@H]2OC", "note": "[FK506]", "values": [{"measurement": "X-ray crystal structure", "setting": "[1]", "result": "Quaternary structure of NfPPI (6MKE)"}]}, {"smiles": "Nc1ncnc2c1ncn2[C@@H]1O[C@H](CO)[C@@H](O)[C@H]1O", "note": "[adenosine]", "values": [{"measurement": "X-ray crystal structure", "setting": "[2]; with NAD, active site, closed conformation", "result": "contains the adenosine substrate and NAD cofactors bound to the active site"}]}, {"smiles": "NC(=O)c1ccc[n+]([C@@H]2O[C@H](COP(=O)(O)OP(=O)(O)OC[C@H]3O[C@@H](n4cnc5c(N)ncnc54)[C@H](O)[C@@H]3O)[C@@H](O)[C@H]2O)c1", "note": "[NAD]", "values": [{"measurement": "X-ray crystal structure", "setting": "[2]; with adenosine, 2.0 Å omit map shown", "result": "contains the adenosine substrate and NAD cofactors bound to the active site"}]}]}
